Data reported in patent publication US20030195205A1, “PDE9 inhibitors for treating cardiovascular disorders” (Pfizer Inc., priority 2001, published 2003).
pIC50: −log10 of the molar value. Where two headings read alike, the source gives them in different places.

Biological target: T1, purified recombinant human PDE9 (Homo sapiens, UniProt O76083)
T1 construct: FLAG; made in house; host or cells: baculovirus/Sf9
Assay: PDE9 enzyme inhibition scintillation proximity assay ([3H]cGMP hydrolysis)
Format: biochemical
Conditions: for inhibition at 1 µM: 1 μM compound, read-out: inhibition against PDE9 at a concentration of 1 μM
Protocol: The ability of the compounds of the invention to inhibit the PDE9 enzyme was determined using the following in vitro assay. The assay used purified recombinant human PDE9.
The assay uses [3H]cGMP which is hydrolysed by the PDE9 enzyme to the 5′-nucleotide [3H]GMP. The [3H]GMP binds to yttrium silicate scintillation proximity assay (SPA) beads, and detected by scintillation counting. Inhibition of activity is determined relative to the activity of uninhibited controls.
Phosphodiesterase Scintillation Proximity Assay (SPA) beads (Yttrium Silicate) were obtained from Amersham Biotech.
[^3H]Guanosine 3′,5′-Cyclic Phosphate ([^3H]-cGMP), Ammonium Salt was obtained from Amersham Biotech.
Buffer A was prepared containing Tris.HCl (20 mM), MgCl2.6H2O (5 mM) in water.
Buffer B was prepared containing Bovine Serum Albumin (2 mg/ml) (BSA) in Buffer A. It was prepared fresh and filter sterilised.
PDE9 enzyme solution was prepared in Buffer B (dilution factor determined such that no more than 30% breakdown of substrate occurred, but typically 1:35,000).
SPA beads were prepared by creating a suspension of beads in water (20 mg/ml) (28 ml per pack) containing 3 mM cold cGMP to effectively quench the reaction.
The compounds of the invention were diluted by a factor of 50 (i.e. 2 μl in 100 μl) when constituted in the final assay mix. Compound stock was prepared at 4 mM in DMSO. Dilute 1/8 with DMSO to give 500 μM solutions.
A 4 mM stock of standard inhibitor was prepared in DMSO. The standard inhibitor chosen was 5-(3-bromobenzyl)-3-n-propyl-1,6-dihydro-7H-pyrazolo[4,3-d]pyrimidin-7-one. The solution was further diluted with DMSO to give a 500 μM solution.
Following serial dilution, 2 μl of compound dilutions were dispensed in duplicate into microtitre plates with 2 μl DMSO added to controls as shown below.
To the microtitre plates containing solutions of compounds of the invention (2 μl) was added Buffer A (25 μl) to all wells. Buffer B (25 μl) was added to blank wells. Enzyme solution (25 μl) was added all wells except blanks. Substrate solution (50 μl) was added to each well. The plates were sealed and incubated for 15 minutes on a plate-shaker at 30 °C. SPA bead solution (50 μl) was added (containing excess cGMP) to each well to stop the reaction (Note: yttrium silicate beads are dense and require constant agitation whilst being added to each plate). The plates were shaken for 15 minutes to allow the beads to bind the GMP product and then allowed to settle for 30 minutes.
The plates were then analysed using a scintillation counter (such as the NXT TopCount)TM.
For each compound the percentage inhibition was calculated by the following equation:
(mean maximum−compound value)/(mean maximum−mean minimum)×100
IC50 values were determined from sigmoid dose response curves of enzyme activity vs. compound concentration.

T1 sequence (O76083 whole entry): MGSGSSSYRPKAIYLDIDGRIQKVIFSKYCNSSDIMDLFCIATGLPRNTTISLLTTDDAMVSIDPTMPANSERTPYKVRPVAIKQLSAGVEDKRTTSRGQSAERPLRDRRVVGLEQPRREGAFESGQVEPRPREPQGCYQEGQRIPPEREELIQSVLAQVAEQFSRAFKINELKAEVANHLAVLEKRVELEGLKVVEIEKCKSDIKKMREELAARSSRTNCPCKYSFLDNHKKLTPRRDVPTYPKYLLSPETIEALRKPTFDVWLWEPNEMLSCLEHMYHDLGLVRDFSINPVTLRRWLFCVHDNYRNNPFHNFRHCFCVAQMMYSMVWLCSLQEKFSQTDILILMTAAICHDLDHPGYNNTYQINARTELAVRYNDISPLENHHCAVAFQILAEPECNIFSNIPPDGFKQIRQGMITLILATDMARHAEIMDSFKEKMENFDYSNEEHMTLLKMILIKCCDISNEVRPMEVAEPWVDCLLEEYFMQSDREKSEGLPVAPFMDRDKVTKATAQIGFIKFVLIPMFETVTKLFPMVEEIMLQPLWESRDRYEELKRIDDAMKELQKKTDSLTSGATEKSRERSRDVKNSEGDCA

Row | pIC50 (read-out: IC50 against PDE9) | inhibition at 1 µM [%] | pIC50 (range the standard inhibitor was expected to fall in, read-out: IC50 of the standard) | SMILES
1 | 6.85 | – | – | O=c1[nH]c(Cc2ccccc2OC(F)(F)F)nc2c(-c3cccnc3)n[nH]c12 [Compound 258]
2 | – | > 40 | – | O=c1[nH]c(Cc2ccccc2OC(F)(F)F)nc2c(-c3ccccc3)n[nH]c12 [Compound 263, 5-(2-Trifluoromethoxybenzyl)-3-phenyl-1,6-dihydro-7H-pyrazolo[4,3-d]pyrimidin-7-one]
3 | 6.90 | > 40 | – | CC(C)c1n[nH]c2c(=O)[nH]c(Cc3ccccc3Oc3ccccc3)nc12 [Compound 52, 3-isopropyl-5-(2-phenoxybenzyl)-1,6-dihydro-pyrazolo[4,3-d]pyrimidin-7-one]
4 | – | > 40 | – | CC(C)c1n[nH]c2c(=O)[nH]c(Cc3ccccc3OC(F)(F)F)nc12 [Compound 156, 3-isopropyl-5-(2-trifluoromethoxybenzyl)-1,6-dihydro-pyrazolo[4,3-d]pyrimidin-7-one]
5 | 6.84 | > 40 | – | O=c1[nH]c(Cc2ccccc2OCc2ccccc2)nc2c(C3CCCC3)n[nH]c12 [Compound 204, 3-cyclopentyl-5-(2-benzyloxybenzyl)-1,6-dihydro-pyrazolo[4,3-d]pyrimidin-7-one]
6 | – | > 40 | – | O=c1[nH]c(Cc2ccccc2OC(F)(F)F)nc2c(C3CCCC3)n[nH]c12 [Compound 256, 3-Cyclopentyl-5-(2-trifluoromethoxybenzyl)-1,6-dihydro-pyrazolo[4,3-d]pyrimidin-7one]
7 | – | > 40 | – | O=c1[nH]c(Cc2ccccc2OCc2ccccc2)nc2c(-c3cccnc3)n[nH]c12 [Compound 138, 3-(3-pyridinyl)-5-(2-benzyloxybenzyl)-1,6-dihydro-pyrazolo[4,3-d]pyrimidin-7-one]
8 | – | > 40 | – | CC(C)c1c2nc(Cc3cccc(Cl)c3)[nH]c(=O)c2nn1C [Compound 262, 5-(3-Chlorobenzyl)-3-isopropyl-2-methyl-2,6-dihydro-7H-pyrazolo[4,3-d]pyrimidin-7-one]
9 | – | – | 7.30 to 7.52 | CCCc1n[nH]c2c(=O)[nH]c(Cc3cccc(Br)c3)nc12 [standard, 5-(3-bromobenzyl)-3-n-propyl-1,6-dihydro-7H-pyrazolo[4,3-d]pyrimidin-7-one, reference compound]
